Where two headings read alike, the source gives them in different places.
What was measured:
[1] = system: Mycosphaerella graminicola; anamorph: Septoria tritici; assay: Fungicidal activity: leaf blotch of wheat (SEPTTR), wheat seedlings; assay type: in vivo; details: Zymoseptoria tritici
Experimental: Evaluation of Fungicidal Activity: Leaf Blotch of Wheat (Mycosphaerella Graminicola; Anamorph: Septoria tritici; Bayer Code […]) Technical grades of materials were dissolved in acetone, which were then mixed with nine volumes of water containing 110 ppm Triton X-100. The fungicide solutions were applied onto wheat seedlings using an automated booth sprayer to run-off. All sprayed plants were allowed to air dry prior to further handling. Wheat plants (variety Yuma) were grown from seed in a greenhouse in 50% mineral soil/50% soil-less Metro mix until the first leaf was fully emerged, with 7-10 seedlings per pot. These plants were inoculated with an aqueous spore suspension of Septoria tritici either prior to or after fungicide treatments. After inoculation the plants were kept in 100% relative humidity (one day in a dark dew chamber followed by two to three days in a lighted dew chamber at 20° C.) to permit spores to germinate and infect the leaf. The plants were then transferred to a greenhouse set at 20° C. for disease to develop. When disease symptoms were fully expressed on the 1st leaves of untreated plants, infection levels were assessed on a scale of 0 to 100 percent disease severity. Percent disease control was calculated using the ratio of disease severity on treated plants relative to untreated plants.

[2] = system: Puccinia triticina; synonym: Puccinia recondita f. sp. tritici; assay: Fungicidal activity: wheat brown rust (PUCCRT), wheat seedlings; assay type: in vivo
Experimental: Technical grades of materials were dissolved in acetone, which were then mixed with nine volumes of water containing 110 ppm Triton X-100. The fungicide solutions were applied onto wheat seedlings using an automated booth sprayer to run-off. All sprayed plants were allowed to air dry prior to further handling. Wheat plants (variety Yuma) were grown from seed in a greenhouse in 50% mineral soil/50% soil-less Metro mix until the first leaf was fully emerged, with 7-10 seedlings per pot. These plants were inoculated with an aqueous spore suspension of Septoria tritici either prior to or after fungicide treatments. After inoculation the plants were kept in 100% relative humidity (one day in a dark dew chamber followed by two to three days in a lighted dew chamber at 20° C.) to permit spores to germinate and infect the leaf. The plants were then transferred to a greenhouse set at 20° C. for disease to develop. When disease symptoms were fully expressed on the 1st leaves of untreated plants, infection levels were assessed on a scale of 0 to 100 percent disease severity. Percent disease control was calculated using the ratio of disease severity on treated plants relative to untreated plants. Evaluation of Fungicidal Activity: Wheat Brown Rust (Puccinia […]; Synonym: Puccinia recondita f. Sp. Tritici; Bayer Code PUCCRT) Wheat plants (variety Yuma) were grown from seed in a greenhouse in 50% mineral soil/50% soil-less Metro mix until the first leaf was fully emerged, with 7-10 seedlings per pot. These plants were inoculated with an aqueous spore suspension of Puccinia triticina either prior to or after fungicide treatments. After inoculation the plants were kept in a dark dew room at 22° C. with 100% relative humidity overnight to permit spores to germinate and infect the leaf. The plants were then transferred to a greenhouse set at 24° C. for disease to develop. Fungicide formulation, application and disease assessment followed the procedures as described in the Example A.

[3] = 24 h, 100 ppm, 1 Day Protectant, wheat, read-out: Disease Control SEPTTR 1DP
[4] = 72 h, 100 ppm, 3 Day Curative, wheat, read-out: Disease Control SEPTTR 3DC
[5] = 24 h, 100 ppm, 1 Day Protectant, wheat, read-out: Disease Control PUCCRT 1DP
[6] = 72 h, 100 ppm, 3 Day Curative, wheat, read-out: Disease Control PUCCRT 3DC

| Structure (SMILES) | pest or weed control at 100 ppm [1, 3] [%] | pest or weed control at 100 ppm [1, 4] [%] | pest or weed control at 100 ppm [2, 5] [%] | pest or weed control at 100 ppm [2, 6] [%] | pest or weed control at 100 ppm ([1]; 24 h, read-out: Disease Control SEPTTR 1DP) [%] | pest or weed control at 100 ppm ([1]; 72 h, read-out: Disease Control SEPTTR 3DC) [%] | pest or weed control at 100 ppm ([2]; 24 h, read-out: Disease Control PUCCRT 1DP) [%] | pest or weed control at 100 ppm ([2]; 72 h, read-out: Disease Control PUCCRT 3DC) [%] |
| --- | --- | --- | --- | --- | --- | --- | --- | --- |
| COc1ccnc(C(=O)N[C@H]2CO[C@@H](C)[C@H](OCC(C)C)[C@@H](OCC(C)C)COC2=O)c1O [Compound 4] | 80 to 100 | 80 to 100 | 80 to 100 | – | – | – | – | – |
| COc1ccnc(C(=O)N[C@H]2COC[C@H](OCc3ccccc3)[C@@H](OCc3ccccc3)COC2=O)c1O [Compound 5, N-((3S,7S,8S)-7,8-bis(benzyloxy)-2-oxo-1,5-dioxonan-3-yl)-3-hydroxy-4-methoxypicolinamide] | 0 to 80 | 0 to 80 | 0 to 80 | 0 to 80 | – | – | – | – |
| COc1ccnc(C(=O)N[C@H]2CO[C@@H](C)[C@H](OCC(C)C)[C@@H](OCC(C)C)COC2=O)c1OCOC(=O)C(C)C [Compound 7] | 80 to 100 | 80 to 100 | 80 to 100 | – | – | – | – | – |
| COc1ccnc(C(=O)N[C@H]2COC[C@H](OCC(C)C)[C@@H](OCC(C)C)COC2=O)c1O [Compound 8] | 0 to 80 | 0 to 80 | 0 to 80 | 80 to 100 | – | – | – | – |
| C=C(C)CO[C@H]1COC[C@@H](NC(=O)c2nccc(OC)c2O)C(=O)OC[C@@H]1OCC(=C)C [Compound 9] | 0 to 80 | 0 to 80 | 0 to 80 | 0 to 80 | – | – | – | – |
| COc1ccnc(C(=O)N[C@@H]2COC[C@H](OCC(C)C)[C@@H](OCC(C)C)COC2=O)c1OCOC(C)=O [Compound 14] | 0 to 80 | – | 80 to 100 | 0 to 80 | – | – | – | – |
| COc1ccnc(C(=O)N[C@H]2COC[C@H](OCC(C)C)[C@@H](OCC(C)C)[C@@H](COCC(C)C)OC2=O)c1O [Compound 15, N-((3S,7S,8R,9R)-7,8-diisobutoxy-9-(isobutoxymethyl)-2-oxo-1,5-dioxonan-3-yl)-3-hydroxy-4-methoxypicolinamide] | 0 to 80 | – | – | 0 to 80 | – | – | – | – |
| COc1ccnc(C(=O)N[C@@H]2COC[C@H](OCC(C)C)[C@@H](OCC(C)C)[C@@H](COCC(C)C)OC2=O)c1O [Compound 16] | 0 to 80 | – | 0 to 80 | 0 to 80 | – | – | – | – |
| COc1ccnc(C(=O)N[C@H]2COC[C@H](OCC(C)C)[C@@H](OCC(C)C)[C@@H](COCC(C)C)OC2=O)c1OCOC(C)=O [Compound 17] | 0 to 80 | – | 0 to 80 | 0 to 80 | – | – | – | – |
| COc1ccnc(C(=O)N[C@@H]2COC[C@H](OCC(C)C)[C@@H](OCC(C)C)[C@@H](COCC(C)C)OC2=O)c1OCOC(C)=O [Compound 18] | 0 to 80 | – | 0 to 80 | 0 to 80 | – | – | – | – |
| CC[C@H]1OC(=O)[C@@H](NC(=O)c2nccc(OC)c2O)COC[C@H](OCC(C)C)[C@H]1OCC(C)C [Compound 19, N-((3S,7S,8S,9R)-9-ethyl-7,8-diisobutoxy-2-oxo-1,5-dioxonan-3-yl)-3-hydroxy-4-methoxypicolinamide] | 0 to 80 | 0 to 80 | – | – | – | – | – | – |
| CC[C@H]1OC(=O)[C@@H](NC(=O)c2nccc(OC)c2OCOC(C)=O)COC[C@H](OCC(C)C)[C@H]1OCC(C)C [Compound 20] | 0 to 80 | 0 to 80 | – | – | – | – | – | – |
| CC[C@H]1OC(=O)[C@H](NC(=O)c2nccc(OC)c2O)COC[C@H](OCC(C)C)[C@H]1OCC(C)C [Compound 22] | 0 to 80 | 0 to 80 | – | – | – | – | – | – |
| CC[C@@H]1OC(=O)[C@@H](NC(=O)c2nccc(OC)c2OCOC(C)=O)COC[C@H](OCC(C)C)[C@H]1OCC(C)C [Compound 23] | 80 to 100 | 80 to 100 | 80 to 100 | 80 to 100 | – | – | – | – |
| CC[C@H]1OC(=O)[C@H](NC(=O)c2nccc(OC)c2OCOC(C)=O)COC[C@H](OCC(C)C)[C@H]1OCC(C)C [Compound 24] | 0 to 80 | 0 to 80 | 0 to 80 | 0 to 80 | – | – | – | – |
| COc1ccnc(C(=O)N[C@H]2CO[C@@H](C)[C@H](OCc3ccccc3)[C@@H](OCc3ccccc3)[C@H](C)OC2=O)c1O [Compound 25] | 80 to 100 | 0 to 80 | 80 to 100 | 0 to 80 | – | – | – | – |
| COc1ccnc(C(=O)N[C@H]2CO[C@H](C)[C@H]3OC(C)(C)O[C@@H]3[C@@H](C)OC2=O)c1O [Compound 27] | 0 to 80 | 0 to 80 | 0 to 80 | 0 to 80 | – | – | – | – |
| COc1ccnc(C(=O)N[C@H]2CO[C@@H](C)C(OCc3ccccc3)C(OCc3ccccc3)[C@H](C)OC2=O)c1OCOC(C)=O (some centres unmarked) [Compound 28] | 80 to 100 | 80 to 100 | 80 to 100 | 80 to 100 | – | – | – | – |
| COc1ccnc(C(=O)N[C@H]2CO[C@H](C)[C@H]3OC(C)(C)O[C@@H]3[C@@H](C)OC2=O)c1OCOC(C)=O [Compound 29] | 0 to 80 | 0 to 80 | 0 to 80 | 0 to 80 | – | – | – | – |
| COc1ccnc(C(=O)N[C@@H]2COC[C@H](OCc3ccccc3)[C@@H](OCc3ccccc3)[C@@H](C)OC2=O)c1O [Compound 30, N-((3R,7S,8S,9R)-7,8-bis(benzyloxy)-9-methyl-2-oxo-1,5-dioxonan-3-yl)-3-hydroxy-4-methoxypicolinamide] | – | – | – | – | 0 to 80 | 0 to 80 | 0 to 80 | 0 to 80 |
| COc1ccnc(C(=O)N[C@@H]2COC[C@H](OCc3ccccc3)[C@@H](OCc3ccccc3)[C@@H](C)OC2=O)c1OCOC(C)=O [Compound 31] | 0 to 80 | 0 to 80 | 0 to 80 | 0 to 80 | – | – | – | – |
| CCCCO[C@H]1COC[C@H](NC(=O)c2nccc(OC)c2OCOC(C)=O)C(=O)O[C@@H](C)[C@@H]1OC [Compound 37] | 0 to 80 | 0 to 80 | 80 to 100 | 80 to 100 | – | – | – | – |
| COc1ccnc(C(=O)N[C@H]2COC[C@@H](OCc3ccccc3)[C@H](OCc3ccccc3)[C@H](C)OC2=O)c1O [Compound 38] | 0 to 80 | 0 to 80 | 80 to 100 | 0 to 80 | – | – | – | – |
| COc1ccnc(C(=O)N[C@H]2COC[C@H](OCC(C)C)[C@@H](Oc3cccc(Cl)c3)[C@H](C)OC2=O)c1O [Compound 194] | – | – | 80 to 100 | 80 to 100 | – | – | – | – |
| COc1ccnc(C(=O)N[C@H]2COC[C@H](OCC(C)C)[C@@H](Oc3ccc(C(F)(F)F)cc3)[C@H](C)OC2=O)c1O [Compound 195] | – | – | 80 to 100 | – | – | – | – | – |
| CCCO[C@H]1[C@H](C)OC(=O)[C@@H](NC(=O)c2nccc(OC)c2O)COC[C@@H]1Oc1ccc(C(F)(F)F)cc1 [Compound 197] | – | – | 80 to 100 | – | – | – | – | – |
| COc1ccc(O[C@H]2COC[C@H](NC(=O)c3nccc(OC)c3O)C(=O)O[C@@H](C)[C@@H]2OC(=O)C(C)C)cc1 [Compound 200] | 0 to 80 | – | – | – | – | – | – | – |

Source: patent US9144239B2, “Macrocyclic picolinamides as fungicides” (DOW AGROSCIENCES LLC, priority 2012, dated 2015)
